Data: US12227509B2, “Dihydropyrazolopyrazinone derivative having MGAT2 inhibitory activity” (Shionogi & Co., Ltd., priority 2019, dated 2025)
pIC50: −log10 of the molar value.

How the values were obtained:
[1] = target: CYP1A2 (Homo sapiens (Human), UniProt P05177); test: CYP inhibition test, CYP1A2; assay type: in vitro ADME; details: pooled human liver microsomes; 7-ethoxyresorufin O-deethylation; given as 'five kinds'
Description: Using commercially available pooled human hepatic microsome, and employing, as markers, 7-ethoxyresorufin O-deethylation (CYP1A2), tolbutamide methyl-hydroxylation (CYP2C9), mephenytoin 4'-hydroxylation (CYP2C19), dextromethorphan 0-demethylation (CYP2D6), and terfenadine hydroxylation (CYP3A4) as typical substrate metabolism reactions of human main five CYP enzyme forms (CYP1A2, 2C9, 2C19, 2D6, 3A4), an inhibitory degree of each metabolite production amount by the compound of the present invention was assessed. The reaction conditions are as follows: substrate, 0.5 μmol/L ethoxyresorufin (CYP1A2), 100 μmol/L tolbutamide (CYP2C9), 50 μmol/L S-mephenitoin (CYP2C19), 5 μmol/L dextromethorphan (CYP2D6), 1 μmol/L terfenedine (CYP3A4); reaction time, 15 minutes; reaction temperature, 37° C.; enzyme, pooled human liver microsomes 0.2 mg protein/mL; concentrations of the compound of the present invention, 1, 5, 10, 20 μmol/L (four points). As a reaction solution, each five kinds of substrates, human liver microsomes, or compound of the present invention in 50 mmol/L Hepes buffer were added to a 96-well plate at the composition as described above, and NADPH, as a cofactor was added to initiate metabolism reactions. After the incubation at 37° C. for 15 minutes, a methanol/acetonitrile=1/[…]) solution was added to stop the reaction. After the centrifugation at 3000 rpm for 15 minutes, resorufin (CYP1A2 metabolite) in the supernatant was quantified by a fluorescent multilabel counter or LC/MS/MS, and tolbutamide hydroxide (CYP2C9 metabolite), mephenytoin 4' hydroxide (CYP2C19 metabolite), dextrorphan (CYP2D6 metabolite), and terfenadine alcohol (CYP3A4 metabolite) were quantified by LC/MS/MS. Addition of only DMSO being a solvent dissolving a drug to a reaction system was adopted as a control (100%). Remaining activity (%) was calculated. IC50 was calculated by reverse presumption by a logistic model using the concentration and an inhibition rate.

[2] = target: CYP3A4 (Homo sapiens (Human), UniProt P08684); test: CYP3A4 (MDZ) MBI test; assay type: in vitro ADME; details: pooled human liver microsomes; midazolam 1-hydroxylation; preincubation 0 vs 30 min
Chain of CYP3A4 (P08684 whole entry): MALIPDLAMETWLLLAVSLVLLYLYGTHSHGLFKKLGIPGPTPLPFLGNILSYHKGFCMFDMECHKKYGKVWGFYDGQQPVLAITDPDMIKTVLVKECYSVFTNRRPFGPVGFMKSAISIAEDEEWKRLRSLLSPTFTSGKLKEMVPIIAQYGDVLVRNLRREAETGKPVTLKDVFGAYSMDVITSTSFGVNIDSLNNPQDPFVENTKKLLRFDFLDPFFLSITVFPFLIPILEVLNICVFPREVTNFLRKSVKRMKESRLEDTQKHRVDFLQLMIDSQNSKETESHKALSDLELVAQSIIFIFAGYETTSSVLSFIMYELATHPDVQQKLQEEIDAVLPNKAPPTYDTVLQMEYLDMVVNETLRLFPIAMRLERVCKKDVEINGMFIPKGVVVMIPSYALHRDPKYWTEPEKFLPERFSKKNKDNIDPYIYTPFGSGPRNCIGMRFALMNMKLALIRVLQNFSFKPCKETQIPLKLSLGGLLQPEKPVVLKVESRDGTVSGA
Procedure: CYP3A4 (MDZ) MBI test is a test of investigating mechanism based inhibition (MBI) potential on CYP3A4 by the enhancement of inhibitory degree of a metabolic reaction caused by the compound of the present invention. CYP3A4 inhibition was evaluated using pooled human liver microsomes by 1-hydroxylation reaction of midazolam (MDZ) as a marker reaction.
The reaction conditions are as follows: substrate, 10 μmol/L MDZ; pre-reaction time, 0 or 30 minutes; substrate reaction time, 2 minutes; reaction temperature, 37° C.; protein content of pooled human liver microsomes, at pre-reaction time 0.5 mg/mL, at reaction time 0.05 mg/mL (at 10-fold dilution); concentrations of the compound of the present invention, at pre-reaction time 1, 5, 10, 20 μmol/L (four points).
Pooled human liver microsomes and a solution of the compound of the present invention in K-Pi buffer (pH 7.4) as a pre-reaction solution were added to a 96-well plate at the composition of the pre-reaction. A part of pre-reaction solution was transferred to another 96-well plate, and 1/10 diluted by K-Pi buffer containing a substrate. NADPH as a co-factor was added to initiate a reaction as a marker reaction (without pre-reaction). After a predetermined time of a reaction, methanol/acetonitrile=1/1 (V/V) solution was added to stop the reaction. In addition, NADPH was added to a remaining pre-reaction solution to initiate a pre-reaction (with pre-reaction). After a predetermined time of a pre-reaction, a part was transferred to another plate, and 1/10 diluted by K-Pi buffer containing a substrate to initiate a reaction as a marker reaction. After a predetermined time of a reaction, methanol/acetonitrile=1/1 (V/V) solution was added in order to stop the reaction. The plate on which each index reaction had been performed was centrifuged at 3000 rpm for 15 minutes, and thereafter 1-hydroxylated midazolam in the supernatant was quantified by LC/MS/MS.
The sample adding DMSO as a solvent to a reaction system instead of a solution dissolving the compound of the present invention was adopted as a control (100%). Remaining activity (%) was calculated at each concentration of the compound of the present invention compared to a control, and IC value was calculated by reverse-presumption by a logistic model using a concentration and an inhibition rate. IC at Preincubation 0 min/IC at Preincubation 30 min was defined as a value of Shifted IC, and a case that Shifted IC was 1.5 or more was regarded as Positive, and a case that Shifted IC was 1.0 or less was regarded as Negative.

[3] = target: hERG (IKr) (Homo sapiens (Human), UniProt Q12809); test: hERG test; assay type: cell-based; details: CHO cells expressing hERG channel, pH 7.4, 10 μmol/L of test compound, read-out: % inhibition of hERG tail peak current (IKr)
Chain of hERG (IKr) (Q12809 whole entry): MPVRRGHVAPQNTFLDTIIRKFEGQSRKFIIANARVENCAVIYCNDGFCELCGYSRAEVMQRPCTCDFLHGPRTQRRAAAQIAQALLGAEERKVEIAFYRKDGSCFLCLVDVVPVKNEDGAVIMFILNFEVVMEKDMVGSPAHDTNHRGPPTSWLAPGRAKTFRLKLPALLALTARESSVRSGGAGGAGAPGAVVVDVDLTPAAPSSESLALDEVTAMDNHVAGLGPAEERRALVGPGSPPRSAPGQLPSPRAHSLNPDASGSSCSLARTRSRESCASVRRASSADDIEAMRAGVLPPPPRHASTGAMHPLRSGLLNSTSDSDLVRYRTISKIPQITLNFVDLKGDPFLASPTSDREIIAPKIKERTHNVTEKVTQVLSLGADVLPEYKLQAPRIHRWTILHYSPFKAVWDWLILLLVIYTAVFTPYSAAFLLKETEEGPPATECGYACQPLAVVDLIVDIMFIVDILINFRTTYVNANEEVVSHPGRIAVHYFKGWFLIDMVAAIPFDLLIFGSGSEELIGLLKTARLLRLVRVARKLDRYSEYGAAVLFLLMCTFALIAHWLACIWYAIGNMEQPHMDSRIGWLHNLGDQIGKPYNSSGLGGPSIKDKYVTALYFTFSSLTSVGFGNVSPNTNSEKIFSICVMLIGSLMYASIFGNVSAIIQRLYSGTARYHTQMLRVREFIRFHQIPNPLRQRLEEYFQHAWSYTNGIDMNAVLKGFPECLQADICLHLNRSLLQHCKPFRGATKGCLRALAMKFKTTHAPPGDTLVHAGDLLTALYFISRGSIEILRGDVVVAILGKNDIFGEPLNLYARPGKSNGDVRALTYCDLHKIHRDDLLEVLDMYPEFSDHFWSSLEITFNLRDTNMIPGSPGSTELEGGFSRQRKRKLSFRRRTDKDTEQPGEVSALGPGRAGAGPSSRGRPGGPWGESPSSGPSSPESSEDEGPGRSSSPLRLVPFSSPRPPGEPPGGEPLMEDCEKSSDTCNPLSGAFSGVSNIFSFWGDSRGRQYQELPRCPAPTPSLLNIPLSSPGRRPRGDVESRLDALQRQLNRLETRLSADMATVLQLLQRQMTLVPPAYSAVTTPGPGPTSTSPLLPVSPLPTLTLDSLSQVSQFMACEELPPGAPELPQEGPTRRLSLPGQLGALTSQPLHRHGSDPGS
Description: For the purpose of assessing risk of an electrocardiogram QT interval prolongation of the compound of the present invention, effects of the compound of the present invention on delayed rectifier K^+ current (IKr), which plays an important role in the ventricular repolarization process, was studied using CHO cells expressing human ether-a-go-go related gene (hERG) channel.
After a cell was retained at a membrane potential of −80 mV by whole cell patch clamp method using an automated patch clamp system (QPatch; Sophion BIoscience A/S), IKr induced by application of a leak potential of −50 mV followed by depolarization pulse stimulation at +20 mV for 2 seconds and, further, repolarization pulse stimulation at −50 mV for 2 seconds, was recorded. […] From the recording IKr, an absolute value of the tail peak current was measured based on the current value at the resting membrane potential using analysis software (Falster Patch; Sophion Bioscience A/S). Further, the % inhibition of tail peak current for the compound of the present invention relative to the tail peak current after application of the vehicle is calculated to assess influence of the compound of the present invention on IKr.

Chain of CYP1A2 (P05177 whole entry): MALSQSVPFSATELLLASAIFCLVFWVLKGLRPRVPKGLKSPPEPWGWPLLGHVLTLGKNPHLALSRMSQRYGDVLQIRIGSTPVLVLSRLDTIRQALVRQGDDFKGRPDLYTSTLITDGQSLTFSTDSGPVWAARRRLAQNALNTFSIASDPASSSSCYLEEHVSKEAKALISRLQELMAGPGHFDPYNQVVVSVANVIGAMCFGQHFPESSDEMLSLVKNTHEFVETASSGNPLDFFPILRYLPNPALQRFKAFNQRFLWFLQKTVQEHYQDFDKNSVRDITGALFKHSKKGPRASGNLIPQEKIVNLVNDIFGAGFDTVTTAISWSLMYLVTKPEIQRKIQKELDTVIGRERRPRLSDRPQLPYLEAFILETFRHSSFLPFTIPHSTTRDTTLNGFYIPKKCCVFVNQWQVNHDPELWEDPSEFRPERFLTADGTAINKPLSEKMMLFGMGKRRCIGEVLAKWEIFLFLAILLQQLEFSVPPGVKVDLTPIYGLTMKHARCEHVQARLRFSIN

pIC50 [1]	SMILES	CYP3A4 (MDZ) MBI (Shifted IC judgement) [2]	inhibition at 10 min, 10 μmol/L [3] [%]
< 4.70	Cc1ccc(-c2nn3c(c2NC(=O)CS(C)(=O)=O)C(=O)N[C@@]2(CCc4cc(OCC(F)(F)F)ccc42)C3)nc1 [Compound I-6]	Negative (a case that Shifted IC was 1.0 or less was regarded as Negative)	
< 4.70	CS(=O)(=O)CC(=O)Nc1c(CCC(F)(F)F)nn2c1C(=O)N[C@@]1(CCc3cc(OCC(F)(F)F)ccc31)C2 [Compound I-58]	Negative (a case that Shifted IC was 1.0 or less was regarded as Negative)	

The remaining lines, values behind:

SMILES	pIC50 [1]	CYP3A4 (MDZ) MBI (Shifted IC judgement) [2]	inhibition at 10 min, 10 μmol/L [3] [%]
N#Cc1ccc(-c2nn3c(c2NC(=O)CC(F)(F)F)C(=O)N[C@@]2(CCc4cc(OCC(F)(F)F)ccc42)C3)nc1 [Compound I-14]	< 4.70	Negative (a case that Shifted IC was 1.0 or less was regarded as Negative)	25.5
Cc1ccc(-c2nn3c(c2NC(=O)CS(C)(=O)=O)C(=O)N[C@@]2(CCc4cc(OCC(F)(F)F)ccc42)C3)cc1 [Compound I-20]	< 4.70	Negative (a case that Shifted IC was 1.0 or less was regarded as Negative)	27.8
CS(=O)(=O)CC(=O)Nc1c(CCC2CC2)nn2c1C(=O)N[C@@]1(CCc3cc(OCC(F)(F)F)ccc31)C2 [Compound I-46]	< 4.70	Negative (a case that Shifted IC was 1.0 or less was regarded as Negative)	
